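The concentration for 50% growth inhibition is given as GI50. TGI marks complete inhibition of growth.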
What was measured:
Test in all cases: NCI-60 cell line screen, 384-well format
SR leukemia = tested on: SR leukemia
MCF7 breast = tested on: MCF7 breast
HCT-116 colon = tested on: HCT-116 colon
A498 renal = tested on: A498 renal
SF-539 CNS = tested on: SF-539 CNS
HL-60(TB) leukemia = tested on: HL-60(TB) leukemia
IGROV1 ovarian = tested on: IGROV1 ovarian
SW-620 colon = tested on: SW-620 colon
NCI-H460 NSCLC = tested on: NCI-H460 NSCLC
M14 melanoma = tested on: M14 melanoma
HCC-2998 colon = tested on: HCC-2998 colon
UO-31 renal = tested on: UO-31 renal
KM12 colon = tested on: KM12 colon
MDA-MB-435 melanoma = tested on: MDA-MB-435 melanoma
OVCAR-5 ovarian = tested on: OVCAR-5 ovarian
PC-3 prostate = tested on: PC-3 prostate
CAKI-1 renal = tested on: CAKI-1 renal
UACC-62 melanoma = tested on: UACC-62 melanoma
TK-10 renal = tested on: TK-10 renal
MDA-MB-231 breast = tested on: MDA-MB-231 breast
LOX IMVI melanoma = tested on: LOX IMVI melanoma
K-562 leukemia = tested on: K-562 leukemia
SF-268 CNS = tested on: SF-268 CNS
SF-295 CNS = tested on: SF-295 CNS
CCRF-CEM leukemia = tested on: CCRF-CEM leukemia
SNB-19 CNS = tested on: SNB-19 CNS
NCI-H23 lung = tested on: NCI-H23 lung
T-47D breast = tested on: T-47D breast
NCI-H226 lung = tested on: NCI-H226 lung
OVCAR-3 ovarian = tested on: OVCAR-3 ovarian
MDA-MB-468 breast = tested on: MDA-MB-468 breast
HOP-62 NSCLC = tested on: HOP-62 NSCLC
NCI-H522 lung = tested on: NCI-H522 lung
UACC-257 melanoma = tested on: UACC-257 melanoma
OVCAR-8 ovarian = tested on: OVCAR-8 ovarian
RXF 393 renal = tested on: RXF 393 renal
OVCAR-4 ovarian = tested on: OVCAR-4 ovarian
SN12C renal = tested on: SN12C renal
HT29 colon = tested on: HT29 colon
786-0 renal = tested on: 786-0 renal
SK-OV-3 ovarian = tested on: SK-OV-3 ovarian
SK-MEL-28 melanoma = tested on: SK-MEL-28 melanoma
COLO 205 colon = tested on: COLO 205 colon
SK-MEL-2 melanoma = tested on: SK-MEL-2 melanoma
DU-145 prostate = tested on: DU-145 prostate
ACHN renal = tested on: ACHN renal
U251 glioblastoma = tested on: U251 glioblastoma
BT-549 breast = tested on: BT-549 breast
A549 NSCLC = tested on: A549 NSCLC
NCI/ADR-RES ovarian = tested on: NCI/ADR-RES ovarian
HCT-15 colon = tested on: HCT-15 colon
NCI-H322M lung = tested on: NCI-H322M lung
MOLT-4 leukemia = tested on: MOLT-4 leukemia
HOP-92 NSCLC = tested on: HOP-92 NSCLC
MALME-3M melanoma = tested on: MALME-3M melanoma
SK-MEL-5 melanoma = tested on: SK-MEL-5 melanoma

## CN(c1ccc(C#N)c(Cl)c1)C1CCC(NC(=O)c2ccc(N3CCN(C4CN(c5ccc6c(c5)C(=O)N(C5CCC(=O)NC5=O)C6=O)C4)CC3)cc2)CC1 (configuration not stated)
SR leukemia
  GI50: > 100 µM
  TGI: > 100 µM
MCF7 breast
  GI50: > 100 µM
  TGI: > 100 µM
HCT-116 colon
  GI50: > 100 µM
  TGI: > 100 µM
A498 renal
  GI50: > 100 µM
  TGI: > 100 µM
SF-539 CNS
  GI50: > 100 µM
  TGI: > 100 µM
HL-60(TB) leukemia
  GI50: > 100 µM
  TGI: > 100 µM
IGROV1 ovarian
  GI50: > 100 µM
  TGI: > 100 µM
SW-620 colon
  GI50: > 100 µM
  TGI: > 100 µM
NCI-H460 NSCLC
  GI50: > 100 µM
  TGI: > 100 µM
M14 melanoma
  GI50: > 100 µM
  TGI: > 100 µM
HCC-2998 colon
  GI50: > 100 µM
  TGI: > 100 µM
UO-31 renal
  GI50: > 100 µM
  TGI: > 100 µM
KM12 colon
  GI50: > 100 µM
  TGI: > 100 µM
MDA-MB-435 melanoma
  GI50: > 100 µM
  TGI: > 100 µM
OVCAR-5 ovarian
  GI50: > 100 µM
  TGI: > 100 µM
PC-3 prostate
  GI50: > 100 µM
  TGI: > 100 µM
CAKI-1 renal
  GI50: > 100 µM
  TGI: > 100 µM
UACC-62 melanoma
  GI50: > 100 µM
  TGI: > 100 µM
TK-10 renal
  GI50: > 100 µM
  TGI: > 100 µM
MDA-MB-231 breast
  GI50: > 100 µM
  TGI: > 100 µM
LOX IMVI melanoma
  GI50: > 100 µM
  TGI: > 100 µM
K-562 leukemia
  GI50: > 100 µM
  TGI: > 100 µM
SF-268 CNS
  GI50: > 100 µM
  TGI: > 100 µM
SF-295 CNS
  GI50: > 100 µM
  TGI: > 100 µM
CCRF-CEM leukemia
  GI50: > 100 µM
  TGI: > 100 µM
SNB-19 CNS
  GI50: > 100 µM
  TGI: > 100 µM
NCI-H23 lung
  GI50: > 100 µM
  TGI: > 100 µM
T-47D breast
  GI50: > 100 µM
  TGI: > 100 µM
NCI-H226 lung
  GI50: > 100 µM
  TGI: > 100 µM
OVCAR-3 ovarian
  GI50: > 100 µM
  TGI: > 100 µM
MDA-MB-468 breast
  GI50: > 100 µM
  TGI: > 100 µM
HOP-62 NSCLC
  GI50: > 100 µM
  TGI: > 100 µM
NCI-H522 lung
  GI50: > 100 µM
  TGI: > 100 µM
UACC-257 melanoma
  GI50: > 100 µM
  TGI: > 100 µM
OVCAR-8 ovarian
  GI50: > 100 µM
  TGI: > 100 µM
RXF 393 renal
  GI50: > 100 µM
  TGI: > 100 µM
OVCAR-4 ovarian
  GI50: > 100 µM
  TGI: > 100 µM
SN12C renal
  GI50: > 100 µM
  TGI: > 100 µM
HT29 colon
  GI50: > 100 µM
  TGI: > 100 µM
786-0 renal
  GI50: > 100 µM
  TGI: > 100 µM
SK-OV-3 ovarian
  GI50: > 100 µM
  TGI: > 100 µM
SK-MEL-28 melanoma
  GI50: > 100 µM
  TGI: > 100 µM
COLO 205 colon
  GI50: > 100 µM
  TGI: > 100 µM
SK-MEL-2 melanoma
  GI50: > 100 µM
  TGI: > 100 µM
DU-145 prostate
  GI50: > 100 µM
  TGI: > 100 µM
ACHN renal
  GI50: > 100 µM
  TGI: > 100 µM
U251 glioblastoma
  GI50: > 100 µM
  TGI: > 100 µM
BT-549 breast
  GI50: > 100 µM
  TGI: > 100 µM
A549 NSCLC
  GI50: > 100 µM
  TGI: > 100 µM
NCI/ADR-RES ovarian
  GI50: > 100 µM
  TGI: > 100 µM
HCT-15 colon
  GI50: > 100 µM
  TGI: > 100 µM
NCI-H322M lung
  GI50: > 100 µM
  TGI: > 100 µM
MOLT-4 leukemia
  GI50: > 100 µM
  TGI: > 100 µM
HOP-92 NSCLC
  GI50: > 100 µM
  TGI: > 100 µM
MALME-3M melanoma
  GI50: > 100 µM
  TGI: > 100 µM
SK-MEL-5 melanoma
  GI50: > 100 µM
  TGI: > 100 µM

Reference: PubChem BioAssay (NCI)
